According to patent publication US10189782B2, “Derivatives of indole for the treatment of cancer, viral infections and lung diseases” (BIOKINESIS, priority 2012, dated 2019):
Where a name gives a salt, the structure may show the parent alone.

target: T1, Human recombinant MKlp2 motor domain1-519, His tagged (Homo sapiens, UniProt O95235); test: Microtubule stimulated ATPase activity of the MKlp2 motor domain (Kinesin ELIPA Assay Kit); assay type: biochemical; conditions: MKIp2 IC50 (μM), Table 3, 22° C.
T1 construct: Human recombinant MKlp2 motor domain1-519, His tagged; His; purchased Cytoskeleton MP05
T1 sequence (O95235 1-519): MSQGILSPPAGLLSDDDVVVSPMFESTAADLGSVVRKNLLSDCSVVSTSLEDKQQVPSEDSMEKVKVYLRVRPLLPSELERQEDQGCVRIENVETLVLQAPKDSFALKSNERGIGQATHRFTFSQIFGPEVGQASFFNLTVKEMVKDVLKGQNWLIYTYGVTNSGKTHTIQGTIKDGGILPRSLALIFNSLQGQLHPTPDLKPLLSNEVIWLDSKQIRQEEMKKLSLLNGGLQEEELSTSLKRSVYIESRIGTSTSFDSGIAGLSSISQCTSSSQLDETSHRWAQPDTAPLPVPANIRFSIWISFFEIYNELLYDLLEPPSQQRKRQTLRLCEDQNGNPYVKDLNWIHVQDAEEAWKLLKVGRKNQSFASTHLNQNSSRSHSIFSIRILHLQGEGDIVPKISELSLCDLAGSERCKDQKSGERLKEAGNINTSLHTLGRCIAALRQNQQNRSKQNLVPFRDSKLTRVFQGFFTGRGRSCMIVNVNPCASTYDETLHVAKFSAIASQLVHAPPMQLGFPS
Protocol: Evaluation of Inhibitory Effects on the Microtubule Stimulated ATPase Activity of the MKlp2 Motor Domain.
MKlp2 ATPase activity was measured by monitoring real time free phosphate generation using the Kinesin ELIPA Assay Kit. The assay is based upon an absorbance shift (330 nm-360 nm) that occurs when 2-amino-6-mercapto-7-methylpurine ribonucleoside (MESG) is catalytically converted to 2-amino-6-mercapto-7-methylpurine in the presence of inorganic phosphate (Pi). One molecule of Pi will yield one molecule of 2-amino-6-mercapto-7-methylpurine in an essentially irreversible reaction.
All experiments were performed at 22° C.
Condition 1, compound preparation.
The compounds were dissolved in DMSO at 30× the maximum concentration to be tested. […] DMSO solutions were pipetted directly into each well.
Condition 2, reaction's “motor mix”.
The following were mixed sequentially in the specified order at RT to obtain the “motor mix”.
20 mL: 15 mM Pipes-NaOH pH 7.0, 10 mM MgCl2, 30 μM Tx (Buffer 1).
10 mL: 5× MSEG (ELIPA 1 reagent, Cat. # BK051).
10 mL: 2.5 mg/mL porcine brain microtubules (3×10 mg Cat. # MT002-XL resuspended in 12 mL of Buffer 1).
0.5 mL: 100×PNP (ELIPA 2 reagent, cat. # BK051).
Condition 3, reaction initiation.
The motor mix was pipetted into each well to obtain 80% of total volume. The reaction was initiated by adding a 20% of total volume of 5 mM ATP into each well.
The reactions were measured in a SpectraMax M2 (Molecular Devices) set in kinetic mode and 360 nm absorbance wavelength. The start protocol was 5 second rapid circular mixing, 21 readings, 30 seconds apart.

| Compound | IC50 [µM] |
| --- | --- |
| COc1ccc2[nH]cc(C(C#N)=Cc3cccnc3)c2c1 [W02010/150211-Example 4, reference compound] | 4.2 |

same assay, conditions: Table 3, 22° C., read-out: MKIp2 IC50

| Compound | IC50 [µM] |
| --- | --- |
| CCOc1ccncc1/C=C(\C#N)c1c[nH]c2ccc(OC)cc12 [Example 2, (Z)-3-(4-ethoxypyridin-3-yl)-2-(5-methoxy-1H-indol-3-yl)acrylonitrile] | 0.3 |
| CN(C)c1ccncc1/C=C(\C#N)c1c[nH]c2ccc(Cl)cc12 [Example 6, (Z)-2-(5-chloro-1H-indol-3-yl)-3-(4-(dimethylamino)pyridin-3-yl)acrylonitrile] | 0.5 |
| CN(C)c1ccncc1/C=C(\C#N)c1c[nH]c2ccc(Cl)cc12 [Example 7, (Z)-2-(5-chloro-1H-indol-3-yl)-3-(4-(dimethylamino)pyridin-3-yl)acrylonitrile, Hydrochloride] | 0.8 |
| N#C/C(=C\c1cnccc1Oc1ccccc1)c1c[nH]c2ccc(Cl)cc12 [Example 10, (Z)-2-(5-chloro-1H-indol-3-yl)-3-(4-phenoxypyridin-3-yl)acrylonitrile] | 0.3 |
| N#C/C(=C\c1cnccc1Oc1ccccc1)c1c[nH]c2ccc(Br)cc12 [Example 11, (Z)-2-(5-bromo-1H-indol-3-yl)-3-(4-phenoxypyridin-3-yl)acrylonitrile] | 0.5 |
| CCOc1ccncc1/C=C(\C#N)c1c[nH]c2ccc(Br)cc12 [Example 13, (Z)-2-(5-bromo-1H-indol-3-yl)-3-(4-ethoxypyridin-3-yl)acrylonitrile] | 0.1 |
| CC(C)Oc1ccncc1/C=C(\C#N)c1c[nH]c2ccc(Br)cc12 [Example 14, (Z)-2-(5-bromo-1H-indol-3-yl)-3-(4-isopropoxypyridin-3-yl)acrylonitrile] | 0.2 |
| CCSc1ccncc1/C=C(\C#N)c1c[nH]c2ccc(Br)cc12 [Example 16, (Z)-2-(5-bromo-1H-indol-3-yl)-3-(4-(ethylthio)pyridin-3-yl)acrylonitrile] | 0.3 |
| N#C/C(=C\c1cnccc1-c1cccc(Br)c1)c1c[nH]c2ccc(Br)cc12 [Example 17, (Z)-2-(5-bromo-1H-indol-3-yl)-3-(4-(3-bromophenyl)pyridin-3-yl)acrylonitrile] | 0.3 |
| N#C/C(=C\c1cnccc1-c1cccc(Br)c1)c1c[nH]c2ccc(Cl)cc12 [Example 18, (Z)-3-(4-(3-bromophenyl)pyridin-3-yl)-2-(5-chloro-1H-indol-3-yl)acrylonitrile] | 0.3 |
| N#C/C(=C\c1cnccc1Sc1ccccc1)c1c[nH]c2ccc(Br)cc12 [Example 19, (Z)-2-(5-bromo-1H-indol-3-yl)-3-(4-(phenylthio)pyridin-3-yl)acrylonitrile] | 0.3 |
| N#C/C(=C\c1cnccc1SCc1ccccc1)c1c[nH]c2ccc(Br)cc12 [Example 20, (Z)-3-(4-(benzylthio)pyridin-3-yl)-2-(5-bromo-1H-indol-3-yl)acrylonitrile] | 0.2 |
| COc1ccc(Sc2ccncc2/C=C(\C#N)c2c[nH]c3ccc(Br)cc23)cc1OC [Example 21, (Z)-2-(5-bromo-1H-indol-3-yl)-3-(4-((3,4-dimethoxyphenyl)thio)pyridin-3-yl)acrylonitrile] | 0.4 |
| N#C/C(=C\c1cnccc1Oc1ccc(F)cc1)c1c[nH]c2ccc(Br)cc12 [Example 22, (Z)-2-(5-bromo-1H-indol-3-yl)-3-(4-(4-fluorophenoxy)pyridin-3-yl)acrylonitrile] | 0.09 |
| N#C/C(=C\c1cnccc1Oc1ccc(F)cc1)c1c[nH]c2ccc(Cl)cc12 [Example 23, (Z)-2-(5-chloro-1H-indol-3-yl)-3-(4-(4-fluorophenoxy)pyridin-3-yl)acrylonitrile] | 0.09 |
| N#C/C(=C\c1cnccc1-c1ccc(C(F)(F)F)cc1)c1c[nH]c2ccc(Br)cc12 [Example 25, (Z)-2-(5-bromo-1H-indol-3-yl)-3-(4-(4-(trifluoromethyl)phenyl)pyridin-3-yl)acrylonitrile] | 0.4 |
| N#C/C(=C\c1cnccc1-c1ccc(C(F)(F)F)cc1)c1c[nH]c2ccc(Cl)cc12 [Example 26, (Z)-2-(5-chloro-1H-indol-3-yl)-3-(4-(4-(trifluoromethyl)phenyl)pyridin-3-yl)acrylonitrile] | 0.5 |

| Compound | IC50 [µM] |
| --- | --- |
| N#C/C(=C\c1cnccc1Sc1ccc(F)cc1)c1c[nH]c2ccc(Cl)cc12 [Example 27, (Z)-2-(5-chloro-1H-indol-3-yl)-3-(4-((4-fluorophenyl)thio)pyridin-3-yl)acrylonitrile] | 0.3 |
| N#C/C(=C\c1cnccc1Sc1ccc(F)cc1)c1c[nH]c2ccc(Br)cc12 [Example 28, (Z)-2-(5-bromo-1H-indol-3-yl)-3-(4-((4-fluorophenyl)thio)pyridin-3-yl)acrylonitrile] | 0.09 |
| N#C/C(=C\c1cnccc1Sc1ccccn1)c1c[nH]c2ccc(Cl)cc12 [Example 30, (Z)-2-(5-chloro-1H-indol-3-yl)-3-(4-(pyridin-2-ylthio)pyridin-3-yl)acrylonitrile] | 0.3 |
| N#C/C(=C\c1cnccc1Sc1ccccn1)c1c[nH]c2ccc(Br)cc12 [Example 31, (Z)-2-(5-bromo-1H-indol-3-yl)-3-(4-(pyridin-2-ylthio)pyridin-3-yl)acrylonitrile] | 0.4 |
| N#C/C(=C\c1cnccc1-n1cncn1)c1c[nH]c2ccc(Br)cc12 [Example 32, (Z)-3-(4-(1H-1,2,4-triazol-1-yl)pyridin-3-yl)-2-(5-bromo-1H-indol-3-yl)acrylonitrile] | 0.06 |
| N#C/C(=C\c1cnccc1-n1cncn1)c1c[nH]c2ccc(Cl)cc12 [Example 33, (Z)-3-(4-(1H-1,2,4-triazol-1-yl)pyridin-3-yl)-2-(5-chloro-1H-indol-3-yl)acrylonitrile] | 0.1 |
| COc1ccncc1/C=C(\C#N)c1c[nH]c2ccc(Cl)cc12 [Example 35, (Z)-2-(5-chloro-1H-indol-3-yl)-3-(4-methoxypyridin-3-yl)acrylonitrile, Hydrochloride] | < 0.07 |
| CN(C)CCSc1ccncc1/C=C(\C#N)c1c[nH]c2ccc(Br)cc12 [Example 36] | 0.3 |
| N#C/C(=C\c1cc(C#N)ccc1Oc1ccc(F)cc1)c1c[nH]c2ccc(Br)cc12 [Example 37, (Z)-3-(2-(5-bromo-1H-indol-3-yl)-2-cyanovinyl)-4-(4-fluorophenoxy)benzonitrile] | 0.9 |
| COc1ccc(C#N)cc1/C=C(\C#N)c1c[nH]c2ccc(Cl)cc12 [Example 40, (Z)-3-(2-(5-chloro-1H-indol-3-yl)-2-cyanovinyl)-4-methoxybenzonitrile] | 0.2 |
| CN(C)c1ccc(C#N)cc1/C=C(\C#N)c1c[nH]c2ccc(Cl)cc12 [Example 41, (Z)-3-(2-(5-chloro-1H-indol-3-yl)-2-cyanovinyl)-4-(dimethylamino)benzonitrile] | 0.4 |
| CCSc1ccc(C#N)cc1/C=C(\C#N)c1c[nH]c2ccc(Cl)cc12 [Example 42, (Z)-3-(2-(5-chloro-1H-indol-3-yl)-2-cyanovinyl)-4-(ethylthio)benzonitrile] | 0.6 |
| COc1ccncc1/C=C(\C#N)c1c[nH]c2cc(Br)ccc12 [Example 45, (Z)-2-(6-bromo-1H-indol-3-yl)-3-(4-methoxypyridin-3-yl)acrylonitrile] | 0.2 |
| COc1ccncc1/C=C(\C#N)c1c[nH]c2cc(F)ccc12 [Example 46, (Z)-2-(6-fluoro-1H-indol-3-yl)-3-(4-methoxypyridin-3-yl)acrylonitrile] | 0.12 |
| COc1ccncc1/C=C(\C#N)c1c[nH]c2cc(Cl)ccc12 [Example 47, (Z)-2-(6-chloro-1H-indol-3-yl)-3-(4-methoxypyridin-3-yl)acrylonitrile] | 0.2 |
| COC(=O)CC(=O)n1cc(/C(C#N)=C/c2cnccc2OC)c2cc(Br)ccc21 [Example 59, (Z)-methyl-3-(5-bromo-3-(1-cyano-2-(4-methoxypyridin-3-yl)vinyl)-1H-indol-1-yl)-3-oxopropanoate] | 0.57 |
| COc1ccncc1/C=C(\C#N)c1cn(C(=O)OCCN2CCN(C)CC2)c2ccc(Br)cc12 [Example 62, (Z)-2-(4-methylpiperazin-1-yl)ethyl 5-bromo-3-(1-cyano-2-(4-methoxypyridin-3-yl)vinyl)-1H-indole-1-carboxylate] | 0.35 |
